This note sets out measurements from patent publication US11795196B2, “Mitochondria-targeting peptides” (Stealth BioTherapeutics Corp., priority 2017, dated 2023).

In experiment [1] the test system is rat. The experiment is described as follows: Rat Myocardial Infarction Model. Format: in vivo. As to conditions: s.c. 2×2 mg/kg, 30 min before ischemia and 5 min before reperfusion, 30 min LAD occlusion, 24 hours post-reperfusion, n=8. Here is the method:
The Rat Myocardial Infarction Model was performed by IPST Therapeutique Inc, Sherbrooke, Quebec, Canada. The animals were randomized in terms of even distribution between treatment groups based on their body weight by the Study Director with the aim of scheduling animal from each treatment group for each day of surgery (when possible). • 1) Sham group: size of the group: n=2. Route of administration: n/a; • 2) Vehicle group: size of the group: n=8. Route of administration: s.c.; • 3) Testing article group: size of the group: n=8. Route of administration: s.c.; Treatment dose: 2×2 mg/kg, 30 min before ischemia and 5 min before reperfusion. Experimental Procedures Study Design • 1) On the day of the surgery, the rat will be anaesthetized with a mixture of 2 to 2.5%. isoflurane USP (Abbot Laboratories, Montreal Canada) in oxygen, and placed on a heating pad to maintain body temperature. • 2) The animal will be intubated and immediately ventilated by means of a positive-pressure rodent respirator set at 10 mL/kg bodyweight at a frequency of 65-70 strokes/min. • 3) A baseline blood sample (1 mL) will be taken from the jugular vein for baseline biomarkers quantification. The blood will be collected in lithium heparin microtainers and centrifuged at 3000 rpm, at 4±2° C. for 10 minutes. The plasma will be aliquoted in 2 samples of equal volume (approximately 250 μL). […] A 1 mL blood sample will be taken from the jugular vein, for 24 hrs biomarkers quantification. • 11) The heart will be excised and mounted into a Langendorff apparatus. […]

Experiment [2] has as its system rat. The experiment in a line: Rat Acute Kidney Injury (AKI) Model, renal ischemia-reperfusion. Format: in vivo. Also noted: concentration or dose not given beside the values. As to conditions: 30 minutes renal artery occlusion of both kidneys, 24 hours after reperfusion, relative to vehicle. Here is the method: The Rat Acute Kidney Injury (AKI) Model was performed by IPST Therapeutique Inc, Sherbrooke, Quebec, Canada. The animals were randomized in terms of even distribution between treatment groups based on their body weight by the Study Director with the aim of scheduling animal from each group at each day of surgery. The rats will be given free access to food and water. Experimental Procedures Induction of Ischemia-Reperfusion • 1. Rats will be anaesthetized with isoflurane USP (Abbot Laboratories, Montreal Canada) 2% in oxygen and placed on a heated pad to maintain body temperature. The ECG and oxygen saturation will be monitored for the entire surgical process. The body temperature will be monitored with a probe thermometer introduced into the abdomen, very close to the kidneys. • 2. A 1 mL blood draw will be taken from the jugular vein. The blood will be collected into lithium heparin tubes and centrifuged at 3000 rpm for 10 min. to obtain the plasma. The plasma will be separated into 200 μL aliquot and stored at −20° C. until dosage of biomarkers. • 3. The abdomen will be disinfected with providone iodine and alaparotomy will be performed. • 4. The kidneys will be exposed and a temporary suture will be placed around renal artery of the two kidneys. Renal ischemia will be visually confirmed by a gradual changed of the kidneys colour going from red to dark purple within a couple of minutes following the start of the ischemia. During the ischemia, the kidneys will be kept moist and warm using a heat lamp and sterile gauze soaked in warm (37° C.) saline. The temperature will be monitored with a probe thermometer introduced into the abdomen, very close to the kidneys. • 5. After 30 minutes of occlusion, the suture will be removed. • 6. The abdominal wounds will be closed with 4-0 silk suture, and the animal will be return to its cage. • 7. Twenty-four hours after reperfusion the rats will be re-anesthetized. A second blood draw will be taken as was done before the ischemia. • 8. Sham will be treated under same conditions as vehicle, except, kidneys will not be subjected to ischemic conditions. Detection of Biomarkers A 200 μL aliquot of plasma sample will be taken before the ischemia and 24 hours following the ischemia; both will be sent to the clinical laboratory of the CHUS (Centre Hospitalier Universitaire de Sherbrooke, Quebec, Canada) for detection of plasma level of creatinine (p.Cr) and Blood Urea Nitrogen (BUN). Computer Systems The following are the validated computer systems to be used during the conduct of this study. The analysis software will be Microsoft Office Excel 2007 installed on networked personal computers running Microsoft Windows8, XP Professional or Vista. Data Analysis Values are presented as means±SEM (standard error of the means) and presented by the symbol+on the graph. Repeat un-paired Student's t-tests were performed in Microsoft Excel 2007 on all experimental data. Differences were considered significant when p≤ 0.05. The vehicle group was compared to the sham group while the test article was compared to the vehicle group. The plasma creatinine post-UR (% mean of vehicle) was calculated using the following formula:
[formula] Where: p.Cr=Plasma creatinine Mean Δ plasma creatinine in sham group=Mean (plasma creatinine 24 h post-isch.−plasma creatinine pre-isch.) in sham group Mean Δ plasma creatinine in vehicle group=Mean ((plasma creatinine 24 h post-inch.−plasma creatinine pre-isch.)−Mean Δ plasma creatinine in sham group) in vehicle group The BUN post-I/R (% mean of vehicle) was calculated using the following formula:
[formula] […]

Another experiment deals with isolated rat hearts. The experiment is described as follows: Ischemia-reperfusion injury, Langendorff isolated heart preparation. As to conditions: 30 min LAD occlusion + 120 min reperfusion, compound 1 μM in perfusion solution, mean; for White Necrotic Area, % of area at risk: only white necrotic tissue.

Take `Cc1cc(O)cc(C)c1C[C@H](NC(=O)[C@H](N)CCCNC(=N)N)C(=O)N[C@@H](CCCCN)c1nc(CC23CC4CC(CC(C4)C2)C3)no1` [Example 37, (R)-N-((S)-1-(((S)-1-(3-(adamantan-1-ylmethyl)-1,2,4-oxadiazol-5-yl)-5-aminopentyl)amino)-3-(4-hydroxy-2,6-dimethylphenyl)-1-oxopropan-2-yl)-2-amino-5-guanidinopentanamide]: the “Infarct size (%), Mean” value in the experiment with rat [1] worked out at 29.2%. For the same molecule, in the experiment with rat [2], the “BUN, % Protection, Mean” value came out at 44.3% and the “Plasma Creatinine, % Protection, Mean” value amounted to 30.7%.
Consider `Cc1cc(O)cc(C)c1C[C@H](NC(=O)[C@H](N)CCCn1ccnc1N)C(=O)N[C@@H](CCCCN)c1nc(CC2CCCCC2)no1` [Example 65, (R)-2-amino-N-((S)-1-(((S)-5-amino-1-(3-(cyclohexylmethyl)-1,2,4-oxadiazol-5 yl)pentyl)amino)-3-(4-hydroxy-2,6-dimethylphenyl)-1-oxopropan-2-yl)-5-(2-amino-1H-imidazol-1-yl)pentanamide], for which, in the experiment on isolated rat hearts, the “Infarct size, % of area at risk” value stood at 24% and the “White Necrotic Area, % of area at risk” value was determined as 17%.
As for `Cc1cc(O)cc(C)c1C[C@H](NC(=O)[C@@H](CCN)NC(=N)N)C(=O)N[C@@H](CCCN)c1nc(Cc2ccccc2)no1` [Example 82, (R)-4-amino-N-((S)-1-(((5)-4-amino-1-(3-benzyl-1,2,4-oxadiazol-5-yl)butyl)amino)-3-(4-hydroxy-2,6-dimethylphenyl)-1-oxopropan-2-yl)-2-guanidinobutanamide], in the experiment on isolated rat hearts, the “Infarct size, % of area at risk” value was found to be 42% and the “White Necrotic Area, % of area at risk” value is 24%. Further, in the experiment on rat [2], the “BUN, % Protection, Mean” value was determined as 25.5% and the “Plasma Creatinine, % Protection, Mean” value was 32.0%.
In the case of `Cc1cc(O)cc(C)c1C[C@H](NC(=O)[C@H](N)CCCNC(=N)N)C(=O)N[C@@H](CCCCN)c1nc(Cc2ccc(C(C)(C)C)cc2)no1` [Example 33, (R)-2-amino-N-((S)-1-(((S)-5-amino-1-(3-(4-(tert-butyl)benzyl)-1,2,4-oxadiazol-5 yl)pentyl)amino)-3-(4-hydroxy-2,6-dimethylphenyl)-1-oxopropan-2-yl)-5-guanidinopentanamide], in the experiment with rat [2], the “BUN, % Protection, Mean” value came out at 35.9% and the “Plasma Creatinine, % Protection, Mean” value came out at 38.9%.
As for `Cc1cc(O)cc(C)c1C[C@H](NC(=O)[C@H](N)CCCn1ccnc1N)C(=O)N[C@@H](CCCN)c1nc(CC2CCCCC2)no1` [Example 42, (R)-2-amino-N-((S)-1-(((S)-4-amino-1-(3-(cyclohexylmethyl)-1,2,4-oxadiazol-5 yl)butyl)amino)-3-(4-hydroxy-2,6-dimethylphenyl)-1-oxopropan-2-yl)-5-(2-amino-1H-imidazol-1-yl)pentanamide], in the experiment on rat [2], the “BUN, % Protection, Mean” value turned out to be 50.4% and the “Plasma Creatinine, % Protection, Mean” value was 53.4%.
As for `Cc1cc(O)cc(C)c1C[C@H](NC(=O)[C@H](N)CCCNC(=N)N)C(=O)N[C@@H](CCCCN)c1nc(C23CC4CC(CC(C4)C2)C3)no1` [Example 38, D-Arg-DMT-NH((S)-1-(3-(adamantan-1-yl)-1,2,4-oxadiazol-5-yl)-5-aminopent-1-yl)], in the experiment on isolated rat hearts, the “Infarct size, % of area at risk” value stood at 31% and the “White Necrotic Area, % of area at risk” value came out at 15%. For the same molecule, the “Infarct size (%), Mean” value with rat [1] is 30.6%.
For the molecule `Cc1cc(O)cc(C)c1C[C@H](NC(=O)[C@H](N)CCCNC(=N)N)C(=O)N[C@@H](Cc1c[nH]cn1)c1nc(CCc2ccccc2)no1` [Example 53, (R)-N-((S)-1-(((S)-2-(1H-imidazol-4-yl)-1-(3 phenethyl-1,2,4-oxadiazol-5 yl)ethyl)amino)-3-(4-hydroxy-2,6-dimethylphenyl)-1-oxopropan-2-yl)-2-amino-5-guanidinopentanamide], in the experiment on isolated rat hearts, the “Infarct size, % of area at risk” value was 30% and the “White Necrotic Area, % of area at risk” value stood at 21%.
For `Cc1cc(O)cc(C)c1C[C@H](NC(=O)[C@H](N)CCNC(=N)N)C(=O)N[C@@H](Cc1c[nH]cn1)c1nc(CC23CC4CC(CC(C4)C2)C3)no1` [Example 68, (R)-N-((S)-1-(((S)-1-(3-(adamantan-1-yl)methyl-1,2,4-oxadiazol-5-yl)-2-(1H-imidazol-4 yl)ethyl)amino)-3-(4-hydroxy-2,6-dimethylphenyl)-1-oxopropan-2-yl)-2-amino-4-guanidinobutanamide] the same measures were 35% and 18%.
For `Cc1cc(O)cc(C)c1C[C@H](NC(=O)[C@H](N)CCNC(=N)N)C(=O)N[C@@H](CCCCN)c1nc(Cc2ccccc2)no1` [Example 64, (R)-2-amino-N-((S)-1-(((S)-5-amino-1-(3-benzyl-1,2,4-oxadiazol-5 yl)pentyl)amino)-3-(4-hydroxy-2,6-dimethylphenyl)-1-oxopropan-2-yl)-4-guanidinobutanamide] the same measures were 38% and 20%.
